{"source": "patent US20200405885A1", "about": "“MAGNETIC RESONANCE IMAGING (MRI) CONTRAST AGENTS AND USE THEREOF” (TECHNION RESEARCH & DEVELOPMENT FOUNDATION LTD., priority 2017, published 2020)", "key": {"[1]": {"test": "Solubilization of MFS-agent in water", "assay_type": "physicochemical", "settings": "0.1 mM in water, no DMSO or other solvents", "procedure": "(§1) To examine the multi-functionality of the complete MFS-agent 2 (FIG. 2B), compound 2 was solubilized in water (0.1 mM) and imaged via three distinct imaging modalities (FIG. 4A-C). […] This is a highly desirable trait, for a molecule that will be delivered through the blood stream. […] Red fluorescence emission was determined by using spectral analysis of a confocal microscope (FIG. 4B)."}, "[2]": {"test": "Phantom T1 MRI measurement (1 T scanner)", "settings": "0.1 mM dissolved in water vs control (0 mM), 1 T MRI scanner", "procedure": "(§2) FIGS. 4A-C present the characterization of the MFS-agent 2 using different imaging modalities; (4A) Phantom T1 MRI-measurement (Bruker, ASPECT 1 T MRI scanner, USA) of control (0 mM) and MFS-agent (0.1 mM dissolved in water), (4B) Emission spectra of the MFS measured by confocal microscope (LSM-880, Zeiss, Germany) with 561 nm laser excitation (peak emission (nm): 617), (4C) and Phantom measurement in X-ray micro-Computed Tomography scanner (Bruker, Skyscan micro-CT, USA) of control (0 mM) and MFS-agent (0.1 mM dissolved in water).\nas §1"}, "[3]": {"test": "Emission spectrum by confocal microscope", "assay_type": "physicochemical", "settings": "561 nm laser excitation", "procedure": "as §2, §1"}, "[4]": {"test": "Phantom measurement in X-ray micro-CT scanner", "settings": "0.1 mM dissolved in water vs control (0 mM)", "procedure": "as §2, §1"}}, "data": [{"compound": "Nc1nc(OCc2ccc(CNC(=O)NCCOCCN(CCOCCn3cc(CNC(=O)CN4CCN(CC(=O)O)CCN(CC(=O)O)CCN(CC(=O)O)CC4)nn3)S(=O)(=O)c3ccc(C4=c5cc6c7c(c5Oc5c4cc4c8c5CCCN8CCC4)CCC[N+]=7CCC6)c(S(=O)(=O)O)c3)cc2)c2nc[nH]c2n1", "note": "[compound 2]", "values": [{"measurement": "solubility in water", "setting": "[1]", "value": "dissolved easily in water"}, {"measurement": "T1 MRI contrast", "setting": "[2]", "value": "very bright contrast"}, {"measurement": "peak emission", "setting": "[3]", "value": 617, "unit": "nm"}, {"measurement": "CT signal (X-ray attenuation)", "setting": "[4]", "value": "very strong CT signal"}]}]}
